Tests used:
[1] = test system: Pseudomonas aeruginosa, Burkholderia cepacia, Strenotrophomonas sp; experiment: Modified Ph. Eur. 5.1.3 microbial challenge test in hair conditioner, Pool 1 (Gram negative non-fermenters); format: cell-based
Protocol: (§1) Itaconic acid, lactic acid and citric acid were purchased from Sigma-Aldrich. Six samples of unpreserved conditioner were dosed with 0.5% and 1% (w/w) itaconic acid, citric acid and lactic acid separately. An unpreserved sample was kept as a control. Each dosed product was adjusted to pH 5 using 50% sodium hydroxide (Sigma-Aldrich). A modified challenge test to that of the European Pharmacopoeia (Ph. Eur. Or EP) 5.1.3 criteria was performed on a subsample of unpreserved and each dosed product. The microbial challenge pools were added to each sample container at a ratio of 1:100. The final concentration of inoculum in the product should be 5×10^6 CFU/G of test product. Each product is mixed with a sterile spatula to ensure a homogenous distribution of the inocula throughout the product. [table] Both the inoculum level and the level of microorganism within each sample was quantified using a Total Viable Count (TVC) pour plate method at 7, 14, 21 and 28 days. A 1:10 dilution was made with a subsample of each product, performed separately in Peptone (0.1%)/tween 80 (2%) neutralising agent. A 1:10 and 1:100 dilution of each subsample was performed and pour plates produced at each dilution using tryptone soya agar. Plates were incubated at 28° C. for 48 hours and then examined for growth. Visible colonies were counted with the aid of a Quebec Colony Counter and recorded for analysis against the challenge test criteria. During the removal of a subsample of product for TVC, a reinoculation is performed at 7 and 14 days, reintroducing 5×10^6 CFU/G of bacteria before mixing using a sterile spatula to homogenise the reinoculation. [table]

[2] = test system: Enterobacter cloacae, Klebsiella sp; experiment: Modified Ph. Eur. 5.1.3 microbial challenge test in hair conditioner, Pool 2 (Gram negative fermenters); format: cell-based
Protocol: as §1

[3] = 0.5% (w/w) in conditioner, pH 5, Pool 1, 7 days
[4] = 0.5% (w/w) in conditioner, pH 5, Pool 1, 14 days
[5] = 0.5% (w/w) in conditioner, pH 5, Pool 1, 21 days
[6] = 0.5% (w/w) in conditioner, pH 5, Pool 1, 28 days
[7] = 1% (w/w) in conditioner, pH 5, Pool 1, 7 days
[8] = 1% (w/w) in conditioner, pH 5, Pool 1, 14 days
[9] = 1% (w/w) in conditioner, pH 5, Pool 1, 21 days
[10] = 1% (w/w) in conditioner, pH 5, Pool 1, 28 days
[11] = 0.5% (w/w) in conditioner, pH 5, Pool 2, 7 days
[12] = 0.5% (w/w) in conditioner, pH 5, Pool 2, 14 days
[13] = 0.5% (w/w) in conditioner, pH 5, Pool 2, 21 days
[14] = 0.5% (w/w) in conditioner, pH 5, Pool 2, 28 days
[15] = 1% (w/w) in conditioner, pH 5, Pool 2, 7 days
[16] = 1% (w/w) in conditioner, pH 5, Pool 2, 14 days
[17] = 1% (w/w) in conditioner, pH 5, Pool 2, 21 days
[18] = 1% (w/w) in conditioner, pH 5, Pool 2, 28 days

SMILES	Microbial Log reduction [1, 3]	Microbial Log reduction [1, 4]	Microbial Log reduction [1, 5]	Microbial Log reduction [1, 6]	Microbial Log reduction [1, 7]	Microbial Log reduction [1, 8]	Microbial Log reduction [1, 9]	Microbial Log reduction [1, 10]	Microbial Log reduction [2, 11]	Microbial Log reduction [2, 12]	Microbial Log reduction [2, 13]	Microbial Log reduction [2, 14]	Microbial Log reduction [2, 15]	Microbial Log reduction [2, 16]	Microbial Log reduction [2, 17]	Microbial Log reduction [2, 18]
CC(O)C(=O)O (stereo not drawn) [Lactic acid, lactic acid]	>5.85	>5.89	>5.79	>5.79	>5.85	>5.89	>5.79	>5.79	3.73	3.70	<2.82	<2.82	3.69	3.58	4.02	4.62
C=C(CC(=O)O)C(=O)O [Itaconic acid]	>5.85	>5.89	>5.79	>5.79	>5.85	>5.89	>5.79	>5.79	>5.72	>5.61	>5.82	>5.82	>5.72	>5.61	>5.82	>5.82
O=C(O)CC(O)(CC(=O)O)C(=O)O [Citric acid, citric acid]	>5.85	>5.89	>5.79	>5.79	>5.85	>5.89	>5.79	>5.79	3.20	2.28	<2.82	2.72	4.67	2.86	<2.82	3.69
